Test results taken from PubChem BioAssay AID1259407 (Chemical Carcinogenesis Research Information System (CCRIS), 2018).
Active and inactive are the calls of the source. The rule behind the calls is not given here.

Tested on: CCRIS mutagenicity, Ames/micronucleus/aberration tests
Assay: CCRIS mutagenicity studies
[1] = Test System: AMES SALMONELLA TYPHIMURIUM, Strain/Indicator: TA98, Metabolic Activation: NONE, Method: STANDARD PLATE
[2] = Test System: AMES SALMONELLA TYPHIMURIUM, Strain/Indicator: TA100, Metabolic Activation: NONE, Method: STANDARD PLATE
[3] = Test System: AMES SALMONELLA TYPHIMURIUM, Strain/Indicator: TA1535, Metabolic Activation: NONE, Method: STANDARD PLATE
[4] = Test System: CHINESE HAMSTER V-79, Strain/Indicator: V-79/6-THIOGUANINE, Metabolic Activation: NONE

Compound: Nc1ccc2c(ccc3c4ccccc4ccc23)c1
- mutagenic call (Test System: AMES SALMONELLA TYPHIMURIUM, Strain/Indicator: TA98, Metabolic Activation: RAT LIVER S-9, AROCLOR 1254 (10%), Method: STANDARD PLATE): active; positive
- mutagenic call (Test System: AMES SALMONELLA TYPHIMURIUM, Strain/Indicator: TA98, Metabolic Activation: RAT, LIVER, CYTOSOL, AROCLOR 1254, Method: STANDARD PLATE): active; positive
- mutagenic call (Test System: AMES SALMONELLA TYPHIMURIUM, Strain/Indicator: TA98, Metabolic Activation: RAT, LIVER, MICROSOMES, AROCLOR 1254, Method: STANDARD PLATE): active; positive

Compound: CCN(CCCl)CCCNc1c2ccccc2nc2c1ccc1ccccc12
- mutagenic call [1]: active; positive
- mutagenic call [2]: active; positive
- mutagenic call [3]: inactive; negative
- mutagenic call (Test System: AMES SALMONELLA TYPHIMURIUM, Strain/Indicator: TA1536, Metabolic Activation: NONE, Method: STANDARD PLATE): active; positive
- mutagenic call (Test System: AMES SALMONELLA TYPHIMURIUM, Strain/Indicator: TA1537, Metabolic Activation: NONE, Method: STANDARD PLATE): active; positive
- mutagenic call (Test System: AMES SALMONELLA TYPHIMURIUM, Strain/Indicator: TA1538, Metabolic Activation: NONE, Method: STANDARD PLATE): active; positive
- mutagenic call (Test System: CHO/HGPRT, Strain/Indicator: CHO-K1-BH4, Metabolic Activation: NONE, Method: STANDARD PLATE): active; positive

Compound: Oc1ccc(O)c(O)c1
- mutagenic call (End Point: IN VITRO CHROMOSOMAL ABERRATIONS, Test System: HUMAN PERIPHERAL LYMPHOCYTES, Metabolic Activation: NONE): active; positive (ploidy changes)
- mutagenic call (End Point: IN VITRO CHROMOSOMAL ABERRATIONS, Test System: HUMAN PERIPHERAL LYMPHOCYTES, Metabolic Activation: NONE, Method: FISH): active; positive (ploidy); greater effects on certain chromosomes
- mutagenic call (End Point: IN VITRO CHROMOSOMAL ABERRATIONS, Test System: HUMAN PERIPHERAL LYMPHOCYTES, Metabolic Activation: NONE, Method: FISH - DUAL COLOR PROBES): active; positive (ploidy changes in chromosomes 7 and 8)
- mutagenic call (End Point: IN VITRO CHROMOSOMAL ABERRATIONS, Test System: HUMAN PERIPHERAL LYMPHOCYTES, Metabolic Activation: NONE, Method: FISH- DUAL COLOR PROBES): inactive; negative for translocations
- mutagenic call (End Point: IN VITRO MICRONUCLEUS, Test System: HUMAN PERIPHERAL LYMPHOCYTES, Metabolic Activation: NONE, Method: FISH - DUAL COLOR PROBES): active; positive
- mutagenic call (Test System: AMES SALMONELLA TYPHIMURIUM, Strain/Indicator: TA97, Metabolic Activation: RAT, LIVER, S-9, AROCLOR 1254, Method: PREINCUBATION): inactive; negative
- mutagenic call (Test System: AMES SALMONELLA TYPHIMURIUM, Strain/Indicator: TA97, Metabolic Activation: RAT, LIVER, S-9, PHENOBARBITAL, Method: PREINCUBATION): inactive; negative
- mutagenic call (Test System: AMES SALMONELLA TYPHIMURIUM, Strain/Indicator: TA98, Metabolic Activation: RAT, LIVER, S-9, AROCLOR 1254, Method: PREINCUBATION): inactive; negative
- mutagenic call (Test System: AMES SALMONELLA TYPHIMURIUM, Strain/Indicator: TA98, Metabolic Activation: RAT, LIVER, S-9, PHENOBARBITAL, Method: PREINCUBATION): inactive; negative
- mutagenic call (Test System: AMES SALMONELLA TYPHIMURIUM, Strain/Indicator: TA100, Metabolic Activation: NONE, Method: FLUCTUATION TEST): inactive; negative
- mutagenic call (Test System: AMES SALMONELLA TYPHIMURIUM, Strain/Indicator: TA100, Metabolic Activation: NONE, Method: PREINCUBATION): inactive; negative
- mutagenic call (Test System: AMES SALMONELLA TYPHIMURIUM, Strain/Indicator: TA100, Metabolic Activation: RAT, LIVER, S-9, AROCLOR 1254, Method: PREINCUBATION): inactive; negative
- mutagenic call (Test System: AMES SALMONELLA TYPHIMURIUM, Strain/Indicator: TA100, Metabolic Activation: RAT, LIVER, S-9, PCB, Method: FLUCTUATION TEST): active; positive
- mutagenic call (Test System: AMES SALMONELLA TYPHIMURIUM, Strain/Indicator: TA100, Metabolic Activation: RAT, LIVER, S-9, PHENOBARBITAL, Method: PREINCUBATION): inactive; negative
- mutagenic call (Test System: AMES SALMONELLA TYPHIMURIUM, Strain/Indicator: TA102, Metabolic Activation: NONE, Method: PREINCUBATION): inactive; negative
- mutagenic call (Test System: AMES SALMONELLA TYPHIMURIUM, Strain/Indicator: TA102, Metabolic Activation: RAT, LIVER, S-9, AROCLOR 1254, Method: PREINCUBATION): inactive; negative
- mutagenic call (Test System: AMES SALMONELLA TYPHIMURIUM, Strain/Indicator: TA104, Metabolic Activation: NONE, Method: PREINCUBATION): inactive; negative
- mutagenic call (Test System: AMES SALMONELLA TYPHIMURIUM, Strain/Indicator: TA1535, Metabolic Activation: NONE, Method: PREINCUBATION): inactive; negative
- mutagenic call (Test System: AMES SALMONELLA TYPHIMURIUM, Strain/Indicator: TA1535, Metabolic Activation: RAT, LIVER, S-9, AROCLOR 1254, Method: PREINCUBATION): inactive; negative
- mutagenic call [4]: active; positive

Compound: O=[N+]([O-])c1ccc2ccc3c4ccccc4cc4ccc1c2c43
- mutagenic call (Test System: AMES SALMONELLA TYPHIMURIUM, Strain/Indicator: TA98(1,8-DNP6), Metabolic Activation: NONE): active; positive
- mutagenic call (Test System: AMES SALMONELLA TYPHIMURIUM, Strain/Indicator: TA98 (1,8-DNP6), Metabolic Activation: NONE, Method: STANDARD PLATE): active; positive
- mutagenic call (Test System: AMES SALMONELLA TYPHIMURIUM, Strain/Indicator: TA98(NR), Metabolic Activation: NONE): active; positive
- mutagenic call (Test System: AMES SALMONELLA TYPHIMURIUM, Strain/Indicator: TA98(NR), Metabolic Activation: NONE, Method: PREINCUBATION): active; positive
- mutagenic call (Test System: AMES SALMONELLA TYPHIMURIUM, Strain/Indicator: TA98 (NR), Metabolic Activation: NONE, Method: STANDARD PLATE): inactive; negative
- mutagenic call (Test System: AMES SALMONELLA TYPHIMURIUM, Strain/Indicator: TA98, Metabolic Activation: NONE): active; positive
- mutagenic call (Test System: AMES SALMONELLA TYPHIMURIUM, Strain/Indicator: TA98, Metabolic Activation: NONE', Method: STANDARD PLATE): active; positive
- mutagenic call (Test System: AMES SALMONELLA TYPHIMURIUM, Strain/Indicator: TA98, Metabolic Activation: NONE, Method: PREINCUBATION): active; positive
- mutagenic call [1]: active; positive
- mutagenic call (Test System: AMES SALMONELLA TYPHIMURIUM, Strain/Indicator: TA98, Metabolic Activation: NONE, Method: STANDARD PLATE (ANAEROBIC)): active; positive
- mutagenic call (Test System: AMES SALMONELLA TYPHIMURIUM, Strain/Indicator: TA98, Metabolic Activation: RAT, LIVER, HEPATOCYTES, AROCLOR 1254): active; positive
- mutagenic call (Test System: AMES SALMONELLA TYPHIMURIUM, Strain/Indicator: TA98, Metabolic Activation: RAT, LIVER, S-9, AROCLOR 1254): active; positive
- mutagenic call [2]: active; positive
- mutagenic call (Test System: CHINESE HAMSTER OVARY, Strain/Indicator: CHO-K1-BH4 (HGPRT), Metabolic Activation: NONE): inactive; negative
- mutagenic call (Test System: CHINESE HAMSTER OVARY, Strain/Indicator: CHO-K1-BH4 (HGPRT), Metabolic Activation: RAT, LIVER, S-9, 3-METHYLCHOLANTHRENE): active; positive
- mutagenic call (Test System: CHO/HGPRT, Strain/Indicator: CHO-K1-BH4, Metabolic Activation: NONE): inactive; negative
- mutagenic call (Test System: CHO/HGPRT, Strain/Indicator: CHO-K1-BH4, Metabolic Activation: RAT, LIVER, HEPATOCYTES): inactive; negative
- mutagenic call (Test System: CHO/HGPRT, Strain/Indicator: CHO-K1-BH4, Metabolic Activation: RAT, LIVER, HEPATOCYTES, 3-METHYLCHOLANTHRENE): inactive; negative
- mutagenic call (Test System: CHO/HGPRT, Strain/Indicator: CHO-K1-BH4, Metabolic Activation: RAT, LIVER, HEPATOCYTES, AROCLOR 1254): inactive; negative
- mutagenic call (Test System: CHO/HGPRT, Strain/Indicator: CHO-K1-BH4, Metabolic Activation: RAT, LIVER, S-9): inactive; negative
- mutagenic call (Test System: CHO/HGPRT, Strain/Indicator: CHO-K1-BH4, Metabolic Activation: RAT, LIVER, S-9, 3-METHYLCHOLANTHRENE): active; positive
- mutagenic call (Test System: CHO/HGPRT, Strain/Indicator: CHO-K1-BH4, Metabolic Activation: RAT, LIVER, S-9, AROCLOR 1254): active; positive

Compound: CC(C)=C(Cl)C=O
- mutagenic call (Test System: AMES SALMONELLA TYPHIMURIUM, Strain/Indicator: TA98, Metabolic Activation: NONE, Method: PREINCUBATION, LIQUID INCUBATION): inactive; negative
- mutagenic call (Test System: AMES SALMONELLA TYPHIMURIUM, Strain/Indicator: TA100, Metabolic Activation: NONE, Method: LIQUID INCUBATION): active; positive
- mutagenic call (Test System: AMES SALMONELLA TYPHIMURIUM, Strain/Indicator: TA100, Metabolic Activation: NONE, Method: PREINCUBATION, LIQUID INCUBATION): active; positive
- mutagenic call (Test System: AMES SALMONELLA TYPHIMURIUM, Strain/Indicator: TA1538, Metabolic Activation: NONE, Method: PREINCUBATION, LIQUID INCUBATION): inactive; negative

Compound: CC[C@@H](C)OS(C)(=O)=O
- mutagenic call [2]: inactive; negative
- mutagenic call [3]: active; positive
- mutagenic call [4]: active; positive
